# According to US20060009433A1, “Neuroprotective spirostenol pharmaceutical compositions” (priority 2003, published 2006):
# pIC50: −log10 of the molar value.
# How the values were obtained:
# [1] = tested on: differentiated human NT2N neurons; assay: MTT assay, Aβ1-42-induced toxicity on differentiated NT2N neurons; type: cell-based; details: for protection against Aβ-induced toxicity: 25 μM Aβ1-42, 72 hours
# [2] = tested on: rat PC12 cells; assay: Trypan blue dye exclusion assay, PC12 cells (Example I); type: cell-based; details: 100 μM steroid, 72 hours
# Method: (§1) Rat PC12 cells were cultured as previously described. Yao et al., Brain Res. 889, 181-190 (2001). Human NT2 precursor (Ntera2/D1 teratocarcinoma) cells were obtained from Stratagene (La Jolla, Calif.) and cultured following the instructions of the supplier. Differentiated human NT2 neurons (NT2N) were obtained after treatment of the NT2 precursor cells with retinoic acid. Andrews, Dev. […] Aβ was dissolved in media and used either in the aggregated (left overnight at 4° C.) or soluble (containing oligomers such as dimers and tetramers) forms examined by electrophoresis as previously described. Yao et al., Brain Res. (2001). […] Id. Cell viability was measured using the trypan blue exclusion method as previously described. Id. In brief, for these studies, cells were treated for 72 hours with steroids in the presence or absence of increasing concentrations of Aβ. At the end of the incubation, the cells were washed three times with PBS and incubated for 15 minutes with 0.1% trypan blue stain solution at room temperature. After washing three times with PBS, 0.1 N NaOH was added to the cells and trypan blue staining was quantified using the Victor quantitative detection spectrophotometer (EGG-Wallac, Gaithersburg, Md.) at 450 nm. Cell protein levels were determined in the same samples by the method of Bradford (Bradford, Anal. Biochem., 72, 248-254 (1976)), where coomassie blue staining is detected at 590 nm.
# (§2) The results obtained from using MTT assay were further confirmed with the trypan blue dye exclusion assay. […] Levels of viability were measured using the trypan blue assay as described under Materials and Methods. Results are expressed as fold trypan blue stained cells per total cell protein over control untreated cells. Results shown are means±SD (n=6-12).
# [3] = tested on: human NT2 cells; assay: Trypan blue dye exclusion assay, NT2 cells; type: cell-based; details: 25 μM steroid, 72 hours
# Method: as §1, §2
# [4] = target: T1, Aβ1-42 (Homo sapiens, UniProt P05067); assay: Aβ aggregation assay (SDS-PAGE, immunoblot); type: biochemical; details: 50 μM Aβ1-42; 24 hours at 37° C.
# Method: At the end of the incubation, proteins were separated by SDS-PAGE on 4-20% gradient acrylamide-bis-acrylamide gel at 125V for 2 hours. Proteins were visualized by coomassie blue staining. Aβ species were identified by immunoblot analysis. Yao, Z. et al., Brain Res. (2001).
# The ability of 22R-hydroxycholesterol to alter Aβ aggregation was also examined. […] At the end of the incubation proteins were separated by SDS-PAGE and visualized by coomassie blue (FIG. 6A). Aβ species formed were identified by immunoblotting using an anti-Aβ polyclonal antiserum (FIG. 6B). Aβ aggregation can be seen on the top of the gel and it is absent in control-media lane. […] A 100 kDa band recognized by the Aβ polyclonal antiserum used in all samples, including control-media, probably reflects non-specific binding of the antiserum.
# [5] = target: T1, Aβ1-42; assay: Cholesterol-protein binding blot assay (CPBBA), Aβ1-42; details: for inhibition of binding of radiolabeled 22R-hydroxycholesterol to Aβ1-42: 50 μM Aβ1-42
# Method: (§3) At the end of the incubation time, samples were separated by 1.5% agarose (Type I-B) gel electrophoresis and transferred to nitrocellulose membrane (Schleicher & Schuell, Keene, N.H.) in 10×SSC buffer. The membrane was exposed to tritium-sensitive screen and analyzed by phosphoimaging using the Cyclone Storage phosphor system (Packard BioScience, Meridien, Conn.). Image-densitometric analysis was performed using the OptiQuant software (Packard). […] Low molecular weight unincorporated 22i-hydroxycholesterol is separated and eliminated during electrophoresis.
# The membrane with the 22R-hydroxycholesterol-Aβ peptide complexes was then used to examine Aβ levels. Membranes were blocked by incubating the nitrocellulose in 5% milk and treated for immunodetection of Aβ using ECL reagents (Amersham-Pharmacia, Piscataway, N.J.). Li et al., Proc. Natl. Acad. Sci. USA, 98, 1267-1272 (2001). Anti-Aβ antibody and secondary antibodies were used at 0.2 μg/ml and 1:5000 dilution, respectively.
# [6] = target: T2, Aβ1-40 (Homo sapiens, UniProt P05067); assay: CPBBA, Aβ1-40; type: binding
# T2 construct: purchased American Peptide Co. (Sunnyvale, Calif.)
# Method: as §3
# [7] = target: T3, Aβ (Homo sapiens, UniProt P05067); assay: CPBBA displacement of radiolabeled 22R-hydroxycholesterol from Aβ (Example II); type: binding; details: 100 μM unlabeled compound; 50 μM Aβ
# T3 construct: Aβ1-42 peptide was purchased from American Peptide Co; purchased American Peptide Co. (Sunnyvale, Calif.)
# Method: At the end of the incubation time, samples were separated by 1.5% agarose (Type I-B) gel electrophoresis under native conditions and transferred to nitrocellulose membrane (Schleicher&Schuell, Keene, N.H.) in 10×SSC buffer. The membrane was exposed to tritium-sensitive screen and analyzed by phosphoimaging using the Cyclone Storage phosphor system (Packard BioScience). Image-densitometric analysis was performed using the OptiQuant software (Packard BioScience). […] Low molecular weight unincorporated 22R-hydroxycholesterol and derivatives are separated and eliminated during electrophoresis.
# [8] = tested on: NT2 cells; assay: Flow cytometry of NT2 cells (cell cycle); type: cell-based, human; details: 25 μM, 12 days of treatment
# Method: Human NT2 precursor (Ntera2/D 1 teratocarcinoma) cells were obtained from Stratagene (La Jolla, Calif., USA) and cultured following the instructions of the supplier. […] After trypsinization, the cells were collected, suspended (1-2×10^6 cells in 0.1 ml citrate/DMSO solution), stained with a solution containing propidium iodide (50 μg/ml) and RNase (10 μg/ml), and subjected to flow cytometric analysis in an FACS Scan flow cytometer (Becton Dickinson, Menlo Park, Calif., USA) equipped with a Modfit software program (Vindelov et al., Cytometry, 3, 332 (1983)).
# [9] = CPBBA with NT2 cell protein; type: binding, human; details: 3 hours at 37° C.; competition with unlabeled compound
# Method: After incubation, samples were separated by 1.0% agarose (Type I-B) gel electrophoresis and transferred to a nitrocellulose membrane (Schleicher & SchueII, Keene, N.H., USA) in 10×saline-sodium citrate (SSC) buffer. The membrane was exposed to a tritium-sensitive screen and analyzed by phosphoimaging using the Cyclone Storage Phosphor System (Packard BioScience, Meridien, Conn., USA). Image-densitometric analyses were performed using the OptiQuant software (Packard). […] Low molecular weight unincorporated 22R-hydroxycholesterol is separated and eliminated during electrophoresis.
# T1 sequence (P05067 672-713): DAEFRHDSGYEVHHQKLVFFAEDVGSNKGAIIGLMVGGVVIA
# T3 sequence (P05067 672-713): as above
# T2 sequence (P05067 672-711): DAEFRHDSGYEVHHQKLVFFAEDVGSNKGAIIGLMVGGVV
compound,measurement,setting,value
"CC(C)CC[C@@H](O)[C@@H](C)[C@H]1CC[C@H]2[C@@H]3CC=C4C[C@@H](O)CC[C@]4(C)[C@H]3CC[C@]12C [SP222, 22R-hydroxycholesterol]",protection against Aβ-induced toxicity,[1]; 1 μM compound,50%
same,protection against Aβ-induced toxicity,[1]; 10 μM compound,100%
same,pIC50,"[1]; Homo sapiens, Neuron, NT2T cells, read-out: IC50 of protection from Aβ-induced toxicity",5.52
same,rescue from Aβ1-42-induced cell death,[2],rescued
same,rescue from Aβ25-35-induced cell death,[2],Neither 22R-hydroxycholesterol nor DHEA could rescue
same,rescue from Aβ1-42-induced cell death,[3],rescued
same,rescue from Aβ25-35-induced cell death,[3],Neither 22R-hydroxycholesterol nor DHEA could rescue
same,effect on Aβ aggregation,[4],did not affect Aβ aggregation
same,inhibition of binding of radiolabeled 22R-hydroxycholesterol to Aβ1-42,[5]; 50 μM unlabeled,50%
same,inhibition of binding of radiolabeled 22R-hydroxycholesterol to Aβ1-42,[5]; 200 μM unlabeled,90%
same,binding to Aβ1-42,"[5]; CPBBA, native conditions",binds
same,binding to Aβ1-40,[6],barely interacts
same,displacement of radiolabeled 22R-hydroxycholesterol binding to Aβ,[7],80%
same,percentage of cells in the G2/M phase,[8]; from 34.43%,15.90%
same,percentage of cells in the G0/G1 phase,[8]; from 35.32%,50.34%
same,radiolabeling of NT2 cell protein with 3H-22R-hydroxycholesterol,[9],decreased in the presence of increasing concentrations of unlabeled 22R-hydroxycholesterol
